According to the supplement of paper PMC11061612:

How the values were obtained:
Assay in all cases: combination Emax (second highest fraction inhibited in the dose matrix, 72 h); higher = more inhibition; extreme values may be limits of the assay
[1] = system: ASH-3 (Thyroid Gland Carcinoma)
Procedure, shortened: (§1)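 After 24 hours at 37°C and 5% CO2 in 1536-well plates, cells in DMEM/F12 or RPMI plus 10% FBS received two-drug dose matrices for 72 hours. Viability came from CellTiter-Glo 2.0 luminescence and was scaled as inhibition, anchored at 0 by vehicle wells and at 1 by blank wells. Combination Emax is taken as the second-highest inhibition in the matrix, and Bliss excess as the observed combination effect less EA + EB − EA·EB, with EA and EB the single-agent effects.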

[2] = system: JHH-7 (Hepatocellular Carcinoma)
Procedure, shortened: as §1

[3] = system: KINGS-1 (Low Grade Glioma)
Procedure, shortened: as §1

[4] = system: NCI-H2347 (Lung Adenocarcinoma)
Procedure, shortened: as §1

[5] = system: NCI-H2405 (Lung Adenocarcinoma)
Procedure, shortened: as §1

[6] = system: OVISE (Ovarian Carcinoma)
Procedure, shortened: as §1

[7] = system: PFSK-1 (Other Solid Carcinomas)
Procedure, shortened: as §1

[8] = system: SCC-9 (Oral Cavity Carcinoma)
Procedure, shortened: as §1

[9] = system: VMRC-LCD (Lung Adenocarcinoma)
Procedure, shortened: as §1

A704 (Kidney Carcinoma) = system: A704 (Kidney Carcinoma)
Procedure, shortened: as §1

BT-20 (Breast Carcinoma) = system: BT-20 (Breast Carcinoma)
Procedure, shortened: as §1

[10] = system: EBC-1 (Squamous Cell Lung Carcinoma)
Procedure, shortened: as §1

EW-18 (Ewing's Sarcoma) = system: EW-18 (Ewing's Sarcoma)
Procedure, shortened: as §1

GOTO (Neuroblastoma) = system: GOTO (Neuroblastoma)
Procedure, shortened: as §1

[11] = system: HC-1 (Other Blood Carcinomas)
Procedure, shortened: as §1

[12] = system: KLE (Endometrial Carcinoma)
Procedure, shortened: as §1

[13] = system: NCI-H322M (Lung Adenocarcinoma)
Procedure, shortened: as §1

[14] = system: SCC-3 (B-Cell Non-Hodgkin's Lymphoma)
Procedure, shortened: as §1

U-87-MG (Glioblastoma) = system: U-87-MG (Glioblastoma)
Procedure, shortened: as §1

[15] = system: HuP-T3 (Pancreatic Carcinoma)
Procedure, shortened: as §1

Compound	combination Emax [1]	combination Emax [2]	combination Emax [3]	combination Emax [4]	combination Emax [5]	combination Emax [6]	combination Emax [7]	combination Emax [8]	combination Emax [9]	combination Emax (A704 (Kidney Carcinoma))	combination Emax (BT-20 (Breast Carcinoma))	combination Emax [10]	combination Emax (EW-18 (Ewing's Sarcoma))	combination Emax (GOTO (Neuroblastoma))	combination Emax [11]	combination Emax [12]	combination Emax [13]	combination Emax [14]	combination Emax (U-87-MG (Glioblastoma))	combination Emax [15]
CS(=O)(=O)CCNCc1ccc(-c2ccc3ncnc(Nc4ccc(OCc5cccc(F)c5)c(Cl)c4)c3c2)o1 [Lapatinib] + NC1(c2ccc(-c3nc4ccn5c(=O)[nH]nc5c4cc3-c3ccccc3)cc2)CCC1 [MK-2206] (first compound max 10 µM, 7x7, partner max 10 µM)	0.956	0.754	0.83	0.188	0.113	0.928	0.942	0.972	0.205	–	–	–	–	–	–	–	–	–	–	–
CN(CCO)CC[C@H](CSc1ccccc1)Nc1ccc(S(=O)(=O)NC(=O)c2ccc(N3CCC([C@@H](O)c4ccccc4-c4ccc(Cl)cc4)CC3)cc2)cc1S(=O)(=O)C(F)(F)F [AZD4320] + CN(C)CCCOc1ccc(-c2ccc3ncc4c(c3c2)n(C2CCOCC2)c(=O)n4C)cn1 [AZD0156] (first compound max 1 µM, 7x7, partner max 1 µM)	0.498	0.425	0.588	0.45	0.224	0.806	0.375	0.26	0.0958	0.496	0.411	0.944	0.91	0.481	0.424	0.266	0.172	0.361	0.165	–
COc1cccc2c1C(=O)c1c(O)c3c(c(O)c1C2=O)C[C@@](O)(C(=O)CO)C[C@@H]3O[C@H]1C[C@H](N)[C@H](O)[C@H](C)O1 [Doxorubicin] + Cc1cc2ncnn2cc1Nc1ncc2c(n1)n(C1CCOCC1)c(=O)n2C [AZD7648] (first compound max 1 µM, 7x7, partner max 10 µM)	0.912	0.411	0.664	0.253	0.201	0.554	–	0.411	0.612	0.176	0.769	0.496	0.754	0.816	0.975	0.6	0.792	0.978	–	0.606
C=CCn1c(=O)c2cnc(Nc3ccc(N4CCN(C)CC4)cc3)nc2n1-c1cccc(C(C)(C)O)n1 [AZD1775] + C[C@@H]1COCCN1C2=NC(=NC(=C2)C3(CC3)[S@](=N)(=O)C)C4=C5C=CNC5=NC=C4 [AZD6738] (first compound max 1 µM, partner max 10 µM)	0.848	0.642	0.533	0.449	0.355	0.777	–	0.434	0.733	0.57	0.718	0.616	0.66	0.888	0.971	0.59	0.871	1	–	0.705
Cc1c2c(nn1C)CSCc1cc(n(C)n1)CSc1cc(c3ccccc3c1)OCCCc1c(C(=O)O)n(C)c3c-2c(Cl)ccc13 [AZD5991] + C[C@@H]1COCCN1C2=NC(=NC(=C2)C3(CC3)[S@](=N)(=O)C)C4=C5C=CNC5=NC=C4 [AZD6738] (first compound max 1 µM, 7x7, partner max 10 µM)	0.566	0.268	0.198	0.322	0.353	0.615	1	0.331	0.559	0.487	–	0.491	0.928	0.92	0.926	0.483	0.94	0.957	0.494	0.666
Cc1cc2ncnn2cc1Nc1ncc2c(n1)n(C1CCOCC1)c(=O)n2C [AZD7648] + CCN(CCO)CCCOc1ccc2c(Nc3cc(CC(=O)Nc4cccc(F)c4)[nH]n3)ncnc2c1 [AZD2811] (first compound max 10 µM, 7x7, partner max 1 µM)	0.324	0.296	0.353	0.302	0.188	0.308	–	0.342	0.619	0.247	0.426	0.18	0.68	0.491	0.737	0.382	0.352	0.338	–	0.161
CN(C)CCCOc1ccc(-c2ccc3ncc4c(c3c2)n(C2CCOCC2)c(=O)n4C)cn1 [AZD0156] + CCN(CCO)CCCOc1ccc2c(Nc3cc(CC(=O)Nc4cccc(F)c4)[nH]n3)ncnc2c1 [AZD2811] (first compound max 1 µM, 7x7, partner max 1 µM)	0.155	0.143	0.167	0.148	0.106	0.113	–	0.186	0.545	0.156	0.198	0.171	0.678	0.649	0.379	0.334	0.123	0.445	–	0.0599
COc1nnc2ccc(N3CCC(c4ccc(OCCN5CCN(C)C(=O)[C@H]5C)cc4)CC3)nn12 [AZD5153] + CN(CC[C@H](CSC1=CC=CC=C1)NC2=C(C=C(C=C2)S(=O)(=O)NC(=O)C3=CC=C(C=C3)N4CCC(CC4)[C@H](C5=CC=CC=C5C6=CC=C(C=C6)Cl)O)S(=O)(=O)C(F)(F)F)CCO [AZD4320] (first compound max 1 µM, 7x7, partner max 1 µM)	0.958	–	–	0.518	0.443	0.9	0.558	–	–	0.768	0.293	1	0.929	0.858	0.695	0.792	0.563	0.93	0.625	0.512
CC(=O)c1c(C)c2cnc(Nc3ccc(N4CCNCC4)cn3)nc2n(C2CCCC2)c1=O [Palbociclib] + CN(CC[C@H](CSC1=CC=CC=C1)NC2=C(C=C(C=C2)S(=O)(=O)NC(=O)C3=CC=C(C=C3)N4CCC(CC4)[C@H](C5=CC=CC=C5C6=CC=C(C=C6)Cl)O)S(=O)(=O)C(F)(F)F)CCO [AZD4320] (first compound max 10 µM, 7x7, partner max 1 µM)	0.692	–	–	0.458	0.351	0.889	0.51	–	–	0.935	0.546	0.875	0.903	0.846	0.831	0.355	0.517	0.392	0.312	0.274
Cc1cc2ncnn2cc1Nc1ncc2c(n1)n(C1CCOCC1)c(=O)n2C [AZD7648] + CN(C)CCCOc1ccc(-c2ccc3ncc4c(c3c2)n(C2CCOCC2)c(=O)n4C)cn1 [AZD0156] (first compound max 10 µM, 7x7, partner max 1 µM)	0.332	0.177	0.3	0.336	0.183	0.366	–	0.24	0.253	0.215	0.413	0.218	0.391	0.163	0.386	0.36	0.368	0.299	–	0.141
Cc1cc2ncnn2cc1Nc1ncc2c(n1)n(C1CCOCC1)c(=O)n2C [AZD7648] + C[C@@H]1COCCN1C2=NC(=NC(=C2)C3(CC3)[S@](=N)(=O)C)C4=C5C=CNC5=NC=C4 [AZD6738] (first compound max 10 µM, 7x7, partner max 10 µM)	0.509	0.369	0.283	0.401	0.241	0.666	–	0.353	0.579	0.395	0.479	0.293	0.636	0.889	0.616	0.419	0.944	0.857	–	0.606
COc1cccc(OCCCN)c1-c1cc(Nc2cnc(C#N)cn2)n[nH]1 [Prexasertib] + O=C(c1cc(Cc2n[nH]c(=O)c3ccccc23)ccc1F)N1CCN(C(=O)C2CC2)CC1 [Olaparib] (first compound max 1 µM, 7x7, partner max 10 µM)	0.694	0.442	0.405	0.378	0.368	0.689	–	0.464	0.679	0.421	0.799	0.603	0.764	0.858	1	0.431	0.83	1	–	0.695
COc1cccc(OCCCN)c1-c1cc(Nc2cnc(C#N)cn2)n[nH]1 [Prexasertib] + CN(C)CCCOc1ccc(-c2ccc3ncc4c(c3c2)n(C2CCOCC2)c(=O)n4C)cn1 [AZD0156] (first compound max 1 µM, 7x7, partner max 1 µM)	0.565	0.411	0.528	0.42	0.406	0.796	–	0.46	0.751	0.485	0.626	0.545	0.761	0.908	1	0.471	0.982	1	–	0.7
